Here are results for 26 compounds from patent US8088930B2, “Benzimidazole derivatives” (Hoffmann-La Roche Inc., priority 2008, dated 2012).

Usually IC50 stands for the point on the concentration scale where inhibition reaches its midpoint.

In one experiment the target is T1, FXR ligand binding domain (GST-FXR LBD fusion protein, human FXR aa 193-473) (Homo sapiens, UniProt Q96RI1).
T1 construct: fused on or other part: Glutathione-S-transferase (GST) fused N-terminally to the FXR LBD, used to capture the protein on glutathione SPA beads
T1 sequence (Q96RI1 211-486 limits assumed): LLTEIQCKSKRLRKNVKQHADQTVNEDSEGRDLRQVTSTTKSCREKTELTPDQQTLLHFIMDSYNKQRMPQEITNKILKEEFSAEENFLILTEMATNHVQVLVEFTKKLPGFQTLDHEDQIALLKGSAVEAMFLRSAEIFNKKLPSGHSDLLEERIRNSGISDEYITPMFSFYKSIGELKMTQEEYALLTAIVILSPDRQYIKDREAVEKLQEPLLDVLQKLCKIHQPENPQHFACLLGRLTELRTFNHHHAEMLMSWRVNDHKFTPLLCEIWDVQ
The experiment can be described thus: Radioligand binding assay (scintillation proximity, radioligand displacement). The conditions noted are these: 40 nM GST-FXR LBD on SPA beads, test compound 6×10^−9 M to 2.5×10^−5 M, read-out: h-IC50 Binding. Summed up: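 40 nM GST-FXR LBD, E. coli-expressed, bound to glutathione yttrium silicate SPA beads in 50 mM Hepes pH 7.4, 10 mM NaCl, 5 mM MgCl2, 0.01% CHAPS. Test compounds displace radioligand (e.g. 20 nM benzimidazolyl-acetamide ligand); bound ligand measured by scintillation proximity counting.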
(In general: SPA uses beads or plates that emit light when radiolabelled molecules are held near them.)
With `Cc1cc(C(=O)O)cc(C)c1OCC(C1CCCCC1)n1c(-c2ccc(Cl)cc2)nc2cc(F)c(F)cc21` (single isomer, unassigned; (+)) [Example 54, (+)-4-{2-[2-(4-Chloro-phenyl)-5,6-difluoro-benzoimidazol-1-yl]-2-cyclohexyl-ethoxy}-3,5-dimethyl-benzoic acid], the half-maximal inhibitory concentration (IC50) worked out at 100 nM. With `CC(C)(Oc1ccc(OCC(C2CCCCC2)n2c(-c3ccc(Cl)cc3)nc3cc(F)c(F)cc32)c(F)c1)C(=O)O` (centres unmarked) [Example 94, 2-(4-{2-[2-(4-Chloro-phenyl)-5,6-difluoro-benzoimidazol-1-yl]-2-cyclohexyl-ethoxy}-3-fluoro-phenoxy)-2-methyl-propionic acid], the IC50 was 100 nM.

Turning to `Cc1cc(Cl)ccc1-c1nc2cc(F)c(F)cc2n1C(COc1c(F)cc(C(=O)O)cc1F)C1CCCCC1` (centres unmarked) [Example 124, 4-{2-[2-(4-Chloro-2-methyl-phenyl)-5,6-difluoro-benzoimidazol-1-yl]-2-cyclohexyl-ethoxy}-3,5-difluoro-benzoic acid], the half-inhibitory concentration (IC50) worked out at 3 nM.

As to `CC(C)(Oc1c(F)cc(C(=O)O)cc1F)C(C1CCCCC1)n1c(-c2ccc(Cl)cc2)nc2cc(F)c(F)cc21` (single isomer, unassigned; (+)) [Example 116, (+)-4-{2-[2-(4-Chloro-phenyl)-5,6-difluoro-benzoimidazol-1-yl]-2-cyclohexyl-1,1-dimethyl-ethoxy}-3,5-difluoro-benzoic acid], the 50% inhibitory concentration (IC50) stood at 2 nM.

For the compound `O=C(O)c1ccc(CCC(C2CCCCC2)n2c(-c3ccccc3)nc3cc(F)c(F)cc32)cc1` (single isomer, unassigned; (+)) [Example 144, (+)-4-[3-Cyclohexyl-3-(5,6-difluoro-2-phenyl-benzoimidazol-1-yl)-propyl]-benzoic acid], the IC50 stood at 200 nM. Regarding `Cc1cc(C(=O)O)cc(C)c1OCC(C1CCCCC1)n1c(-c2ccc(Cl)cc2)nc2ccccc21` (centres unmarked) [Example 105, 4-{2-[2-(4-Chloro-phenyl)-benzoimidazol-1-yl]-2-cyclohexyl-ethoxy}-3,5-dimethyl-benzoic acid], the IC50 was 40 nM.

Take `Cc1ccc(C(=O)O)cc1OCC(C1CCCCC1)n1c(-c2ccc(Cl)cc2)nc2cc(F)c(F)cc21` (centres unmarked) [Example 16, 3-{2-[2-(4-Chloro-phenyl)-5,6-difluoro-benzoimidazol-1-yl]-2-cyclohexyl-ethoxy}-4-methyl-benzoic acid]: the IC50 turned out to be 200 nM.

As for `O=C(O)C1CCC(NCC(C2CCCCC2)n2c(-c3ccc(Cl)cc3)nc3cc(F)c(F)cc32)CC1` (single isomer, unassigned) [Example 137, (+) or (−)-4-{2-[2-(4-Chloro-phenyl)-5,6-difluoro-benzoimidazol-1-yl]-(2-cis-cyclohexyl-ethylamino}-cyclohexanecarboxylic acid], the IC50 worked out at 6100 nM. For the compound `COc1ccc(-c2nc3cc(F)c(F)cc3n2C(COc2c(C)cc(-c3nnn[nH]3)cc2C)C2CCCCC2)c(OC)n1` (centres unmarked) [Example 99, 1-{1-cyclohexyl-2-[2,6-dimethyl-4-(1H-tetrazol-5-yl)-phenoxy]-ethyl}-2-(2,6-dimethoxy-pyridin-3-yl)-5,6-difluoro-1H-benzoimidazole], the IC50 was determined as 2 nM. In the case of `CC(C)(Oc1ccc(-c2nnn[nH]2)cc1)C(C1CCCCC1)n1c(-c2ccc(Cl)cc2)nc2cc(F)c(F)cc21` (single isomer, unassigned; (-)) [Example 88, (−)-2-(4-Chloro-phenyl)-1-{1-cyclohexyl-2-methyl-2-[4-(1H-tetrazol-5-yl)-phenoxy]-propyl}-5,6-difluoro-1H-benzoimidazole], the IC50 came out at 3 nM. On the same count and under the same terms, the value for `COc1ccc(-c2nc3cc(F)c(F)cc3n2C(COc2c(F)cc(C(=O)O)cc2F)C2CCCCC2)c(OC)n1` (single isomer, unassigned; (-)) [Example 98, (−)-4-{2-Cyclohexyl-2-[2-(2,6-dimethoxy-pyridin-3-yl)-5,6-difluoro-benzoimidazol-1-yl]-ethoxy}-3,5-difluoro-benzoic acid] was 1 nM. Consider `O=C(O)c1ccc(S(=O)(=O)CC(C2CCCCC2)n2c(-c3ccc(Cl)cc3)nc3cc(F)c(F)cc32)cc1` (centres unmarked) [Example 141, 4-{2-[2-(4-Chloro-phenyl)-5,6-difluoro-benzoimidazol-1-yl]-2-cyclohexyl-ethanesulfonyl}-benzoic acid], for which the IC50 amounted to 8200 nM. For the compound `Cc1cc(Cl)ccc1-c1nc2cc(F)c(F)cc2n1C(COc1ccc(C(=O)O)cn1)C1CCCCC1` (centres unmarked) [Example 123, 6-{2-[2-(4-Chloro-2-methyl-phenyl)-5,6-difluoro-benzoimidazol-1-yl]-2-cyclohexyl-ethoxy}-nicotinic acid], the IC50 turned out to be 30 nM. For `O=C(O)c1ccc(COCC(C2CCCCC2)n2c(-c3ccc(Cl)cc3)nc3cc(F)c(F)cc32)cc1` (centres unmarked) [Example 58, 4-{2-[2-(4-Chloro-phenyl)-5,6-difluoro-benzoimidazol-1-yl]-2-cyclohexyl-ethoxymethyl}-benzoic acid], the IC50 is 100 nM. The same measure, in the same setting: in the case of `COc1ccc(-c2nc3cc(F)c(F)cc3n2C(COc2c(C)cc(C(=O)O)cc2C)C2CCCCC2)c(OC)n1` (single isomer, unassigned; (+)) [Example 83, (+)-4-{2-Cyclohexyl-2-[2-(2,6-dimethoxy-pyridin-3-yl)-5,6-difluoro-benzoimidazol-1-yl]-ethoxy}-3,5-dimethyl-benzoic acid] it was 0.2 nM; in that of `O=C(O)c1cc(F)c(OCC(C2CCCCC2)n2c(-c3ccc(Cl)cc3)nc3ccccc32)c(Cl)c1` (single isomer, unassigned; (-)) [Example 109, (−)-3-Chloro-4-{2-[2-(4-chloro-phenyl)-benzoimidazol-1-yl]-2-cyclohexyl-ethoxy}-5-fluoro-benzoic acid], 30 nM; in that of `COc1ccc(-c2nc3cc(F)c(F)cc3n2C(CCc2ccc(C(=O)O)cc2)C2CCCCC2)c(OC)n1` (single isomer, unassigned; (-)) [Example 146, (−)-4-{3-Cyclohexyl-3-[2-(2,6-dimethoxy-pyridin-3-yl)-5,6-difluoro-benzoimidazol-1-yl]-propyl}-benzoic acid], 1 nM.

For the compound `O=C(O)C1CCC(NCC(C2CCCCC2)n2c(-c3ccc(Cl)cc3)nc3cc(F)c(F)cc32)CC1` (single isomer, unassigned) [Example 138, (+) or (−)-4-{2-[2-(4-Chloro-phenyl)-5,6-difluoro-benzoimidazol-1-yl]-(2-trans-cyclohexyl-ethylamino}-cyclohexanecarboxylic acid], the IC50 was 300 nM. In the case of `Cc1cc(-c2nnn[nH]2)cc(C)c1OCC(C1CCC(F)(F)CC1)n1c(-c2ccc(Cl)cc2)nc2cc(F)c(F)cc21` (centres unmarked) [Example 134, 2-(4-Chloro-phenyl)-1-{1-(4,4-difluoro-cyclohexyl)-2-[2,6-dimethyl-4-(1H-tetrazol-5-yl)-phenoxy]-ethyl}-5,6-difluoro-1H-benzoimidazole], the concentration for half-maximal inhibition (IC50) stood at 10 nM.

With `Fc1cc2nc(-c3ccc(Cl)cc3)n(C(COc3ccc(-c4nnn[nH]4)cn3)C3CCCCC3)c2cc1F` (single isomer, unassigned; (-)) [Example 63, (−)-2-(4-Chloro-phenyl)-1-{1-cyclohexyl-2-[5-(1H-tetrazol-5-yl)-pyridin-2-yloxy]-ethyl}-5,6-difluoro-1H-benzoimidazole], the 50% inhibitory concentration (IC50) stood at 90 nM. Regarding `O=C(O)c1ccc(OCC(C2CCCCC2)n2c(-c3ccc(Cl)cc3)nc3cc(F)c(F)cc32)c(C(F)(F)F)c1` (single isomer, unassigned; (-)) [Example 41, (−)-4-{2-[2-(4-Chloro-phenyl)-5,6-difluoro-benzoimidazol-1-yl]-2-cyclohexyl-ethoxy}-3-trifluoromethyl-benzoic acid], the IC50 worked out at 70 nM. Turning to `Fc1cc2nc(-c3ccc(Cl)cc3)n(C(COc3c(F)cc(-c4nnn[nH]4)cc3F)C3CCCCC3)c2cc1F` (centres unmarked) [Example 127, 2-(4-Chloro-phenyl)-1-{1-cyclohexyl-2-[2,6-difluoro-4-(1H-tetrazol-5-yl)-phenoxy]-ethyl}-5,6-difluoro-1H-benzoimidazole], the IC50 was 1 nM. In the case of `CC(C)(Oc1ccc(OCC(C2CCCCC2)n2c(-c3ccc(Cl)cc3)nc3cc(F)c(F)cc32)cc1)C(=O)O` (centres unmarked) [Example 90, 2-(4-{2-[2-(4-Chloro-phenyl)-5,6-difluoro-benzoimidazol-1-yl]-2-cyclohexyl-ethoxy}-phenoxy)-2-methyl-propionic acid], the half-inhibitory concentration (IC50) is 200 nM. On to `Cc1cc(C(=O)O)ccc1OCC(C1CCCCC1)n1c(-c2ccc(Cl)cc2)nc2cc(F)c(F)cc21` (centres unmarked) [Example 11, 4-{2-[2-(4-Chloro-phenyl)-5,6-difluoro-benzoimidazol-1-yl]-2-cyclohexyl-ethoxy}-3-methyl-benzoic acid], for which the IC50 is 20 nM. Regarding `O=C(O)c1ccc(OCC(C2CCCCC2)n2c(-c3ccc(Cl)cc3)nc3cc(F)c(F)cc32)c(C(F)(F)F)c1` (centres unmarked) [Example 39, 4-{2-[2-(4-Chloro-phenyl)-5,6-difluoro-benzoimidazol-1-yl]-2-cyclohexyl-ethoxy}-3-trifluoromethyl-benzoic acid], the IC50 was found to be 30 nM.

The same experiment, now with this note: h-IC50 Binding, 40 nM GST-FXR LBD on SPA beads, test compound 6×10^−9 M to 2.5×10^−5 M.
Compound `O=C(O)c1ccc(OCC(C2CCCCC2)n2c(-c3ccc(Cl)cc3)nc3cc(F)c(F)cc32)cc1` (single isomer, unassigned; (+)) [Example 5, (+)-4-{2-[2-(4-Chloro-phenyl)-5,6-difluoro-benzoimidazol-1-yl]-2-cyclohexyl-ethoxy}-benzoic acid] registered a 50% inhibitory concentration (IC50) of 40 nM.
